This passage reports Ki results from patent publication US11034692B1 (Genentech, Inc., priority 2017, dated 2021).

This assay deals with HPK1. Kind of assay: HPK1 Lantha Binding Assay ("Lanth"). As to conditions: Table B1-1, read-out: HPK1 Ki (μM) (Lanth). The protocol:
HPK1 Lantha Binding Assay (“Lanth”)
The compounds to be tested were diluted by preparing 12.5 uL/well of 5 mM compound (100×) in columns 2 and 13 and 10 ul/well of DMSO in columns 3-12, 14-23, and wells A1-H1 and I24-P24 of the compound plate using a Bravo liquid handling platform. For the reference compound, the top concentration was 1 mM. To the plate was added 10 ul 2 mM staurosporine in wells J1-P1 and A24-H24. A 11 point 5-fold compound serial dilution was performed using the Bravo liquid handling platform. From the plate were transferred 2.5 ul of the solutions from column 2 and column 13 to the 10 ul of DMSO in columns 3 and 14 & so on. The compound plate was centrifuged at 2500 rpm for 1 min. From the compound plate was transferred 80 nl of the compounds into an assay plate using the Echo liquid handler system. One compound plate makes two assay plates. Each assay plate is sealed and stored in an N2 cabinet.
The following assay concentrations and times were used: 2 nM HPK1, 2 nM Eu-Anti-GST Ab, and 15 nM Tracer222, with 60 min incubation time.
III. HPK Lantha Binding Assay:
For the binding assay, 4 ul 2×HPK1 and Eu-anti-GST antibody were added to each well of the assay plate using a Multidrop reagent dispenser. The solutions were incubated in a 23 C incubator for 1 h. To each well of the assay plate was added 4 ul 2× Tracer-222 using a Multidrop reagent dispenser. The solutions were again incubated in a 23 C incubator for 1 h. The results of the assay were read using an Envision plate reader with the following parameters: TR_FRET, 340ex/615 and 665em; 100 usec Delay; and 200 usec integration.
Compound Ki was analyzed using Morrison ki fit model in XL-fit • a. fit=(1−((((E+x)+(Ki*(1+(S/Kd))))−(((((E+x)+(Ki*(1+(S/Kd))))[…])−((4*E)*x))^0.5))/(2*E))) • res=(y-fit) • b. Parameters: • E=enzyme concentration • S=Tracer222 concentration, Kd=Tracer222 Kd • All measurements reported using the same units (uM)
Exemplary compounds of Formula I or Ia were tested in the binding assays. The Ki data in Table B1-1 are based on the “Lanth” assay.
The term Ki denotes the dissociation constant of the complex between target and ligand, obtained from inhibition or displacement. As for `Cc1ccnc(-c2ccccc2)c1-c1cc2cc(NC(=O)[C@H]3C[C@@H]3c3cnn(C)c3)ncc2c(N)n1` [Compound 318, (1S,2S)—N-(8-amino-6-(4-methyl-2-phenylpyridin-3-yl)-2,7-naphthyridin-3-yl)-2-(1-methyl-1H-pyrazol-4-yl)cyclopropanecarboxamide], the Ki stood at 0.032 nM.
With `Cn1cc(-c2cc3cc(NC(=O)C4CC4)ncc3c(N)n2)cn1` [Compound 27, N-[8-amino-6-(1-methylpyrazol-4-yl)-2,7-naphthyridin-3-yl]cyclopropanecarboxamide], the Ki is 1.08 nM.
Regarding `Cc1ccncc1-c1cc2cc(NC(=O)[C@@H]3C[C@H]3C3CCOCC3)ncc2c(N)n1` [Compound 325, (1R,2S)—N-[8-amino-6-(4-methylpyridin-3-yl)-2,7-naphthyridin-3-yl]-2-(oxan-4-yl)cyclopropane-1-carboxamide], the Ki was found to be 3.43 nM.
Consider `Cc1cc(-c2ncco2)ncc1-c1cc2cc(NC(=O)[C@H]3C[C@@H]3c3cnn(C)c3)ncc2c(N)n1` [Compound 308, (1S,2S)—N-[8-amino-6-[4-methyl-6-(1,3-oxazol-2-yl)pyridin-3-yl]-2,7-naphthyridin-3-yl]-2-(1-methyl-1H-pyrazol-4-yl)cyclopropane-1-carboxamide], for which the Ki was 3.04 nM.
Turning to `N#Cc1ccncc1-c1cc2cc(NC(=O)[C@@H]3C[C@@H]3F)ncc2c(N)n1` [Compound 15, (1S,2S)—N-(8-amino-6-(4-cyanopyridin-3-yl)-2,7-naphthyridin-3-yl)-2-fluorocyclopropanecarboxamide], the Ki amounted to 22.6 nM.
With `CCc1ccncc1-c1cc2cc(NC(=O)C3=CC3)ncc2c(N)n1` [Compound 68, N-[8-amino-6-(4-ethyl-3-pyridyl)-2,7-naphthyridin-3-yl]cyclopropene-1-carboxamide], the inhibitory constant (Ki) stood at 545 nM.
Turning to `Cc1ccncc1-c1cc2cc(Nc3cc(C4CC4)n(CCO)n3)ncc2c(N)n1` [Compound 259, 2-(3-[[8-amino-6-(4-methylpyridin-3-yl)-2,7-naphthyridin-3-yl]amino]-5-cyclopropyl-1H-pyrazol-1-yl)ethan-1-ol], the inhibition constant (Ki) amounted to 146 nM.
As for `Cn1nccc1-c1cc2cc(NC(=O)[C@@H]3C[C@@H]3F)ncc2c(N)n1` [Compound 18, (1S,2S)—N-(8-amino-6-(1-methyl-1H-pyrazol-5-yl)-2,7-naphthyridin-3-yl)-2-fluorocyclopropanecarboxamide], the inhibition constant Ki was 47.5 nM.
Consider `CCc1ccncc1-c1cc2cc(Nc3cc[nH]n3)ncc2c(N)n1` [Compound 77, 3-(4-Ethylpyridin-3-yl)-N6-(1H-pyrazol-3-yl)-[2,7]naphthyridine-1,6-diamine], for which the Ki came to 0.6 nM.
`CCc1ccncc1-c1cc2cc(Nc3cc(C)ncn3)ncc2c(N)n1` [Compound 80, 3-(4-Ethylpyridin-3-yl)-N6-(6-methylpyrimidin-4-yl)-[2,7]naphthyridine-1,6-diamine]: the inhibition constant Ki is 0.3 nM.
Consider `Cc1ccncc1-c1cc2cc(NC(=O)[C@H]3[C@@H]4CN(C5COC5)C[C@@H]43)ncc2c(N)n1` [Compound 255, (exo)-N-[8-amino-6-(4-methylpyridin-3-yl)-2,7-naphthyridin-3-yl]-3-(oxetan-3-yl)-3-azabicyclo[3.1.0]hexane-6-carboxamide], for which the Ki stood at 33.9 nM.
Consider `Cc1ccncc1-c1cc2cc(Nc3cnn(C(C)(C)C(=O)N(C)C)c3)ncc2c(N)n1` [Compound 183, 2-[4-[[8-amino-6-(4-methyl-3-pyridyl)-2,7-naphthyridin-3-yl]amino]pyrazol-1-yl]-N,N,2-trimethyl-propanamide], for which the Ki is 0.98 nM.
On to `Cc1ccncc1-c1cc2cc(NC(=O)[C@H]3C[C@@H]3C3CCOCC3)ncc2c(N)n1` [Compound 324, (1S,2R)—N-[8-amino-6-(4-methylpyridin-3-yl)-2,7-naphthyridin-3-yl]-2-(oxan-4-yl)cyclopropane-1-carboxamide], for which the Ki came to 0.48 nM.
On to `Cc1ccncc1-c1nc(N)c2cnc(NC(=O)C3CC3)cc2c1-c1cn[nH]c1` [Compound 258, N-(8-amino-6-(4-methylpyridin-3-yl)-5-(1H-pyrazol-4-yl)-2,7-naphthyridin-3-yl)cyclopropanecarboxamide], for which the inhibition constant Ki was 0.695 nM.
As for `Cc1ccncc1-c1cc2cc(Nc3cnn(CC(F)F)c3)ncc2c(N)n1` [Compound 257, 6-N-[1-(2,2-difluoroethyl)-1H-pyrazol-4-yl]-3-(4-methylpyridin-3-yl)-2,7-naphthyridine-1,6-diamine], the Ki was 1.01 nM.
For `Nc1nc(-c2cnccc2CCO)cc2cc(NC(=O)[C@@H]3C[C@H]3c3cnsc3)ncc12` [Compound 246, (1R,2R)—N-(8-amino-6-(4-(2-hydroxyethyl)pyridin-3-yl)-2,7-naphthyridin-3-yl)-2-(isothiazol-4-yl)cyclopropanecarboxamide] the value was 0.0455 nM.
With `Cc1ccncc1-c1cc2cc(NC(=O)C(C)(C)O)ncc2c(N)n1` [Compound 39, N-(8-amino-6-(4-methylpyridin-3-yl)-2,7-naphthyridin-3-yl)-2-hydroxy-2-methylpropanamide], the Ki was found to be 2030 nM.
With `Nc1nc(N2CCOC2=O)cc2cc(NC(=O)C3CC3)ncc12` [Compound 40, N-(8-amino-6-(2-oxooxazolidin-3-yl)-2,7-naphthyridin-3-yl)cyclopropanecarboxamide], the Ki was 98 nM.
On to `N#C[C@@H]1C[C@H]1C(=O)Nc1cc2cc(-c3cnccc3-c3cc[nH]n3)nc(N)c2cn1` [Compound 243, (1R,2R)—N-(6-(4-(1H-pyrazol-3-yl)pyridin-3-yl)-8-amino-2,7-naphthyridin-3-yl)-2-cyanocyclopropanecarboxamide], for which the Ki worked out at 1.37 nM.
With `Cc1ccncc1-c1cc2cc(NC(=O)[C@H]3C[C@@H]3C#N)ncc2c(N)n1` [Compound 202, (1S,2S)—N-(8-amino-6-(4-methylpyridin-3-yl)-2,7-naphthyridin-3-yl)-2-cyanocyclopropane-1-carboxamide], the Ki is 0.4 nM.
The result for `CCc1ccncc1-c1cc2cc(Nc3cnn(CCO)c3)ncc2c(N)n1` [Compound 85, 2-{4-[8-Amino-6-(4-ethylpyridin-3-yl)-[2,7]naphthyridin-3-ylamino]pyrazol-1-yl}ethanol] reads 1.98 nM; that for `Cc1ccncc1-c1cc2cc(NC(=O)[C@H]3CC[C@H]3C)ncc2c(N)n1` [Compound 321, (1S,2R)—N-(8-amino-6-(4-methylpyridin-3-yl)-2,7-naphthyridin-3-yl)-2-methylcyclobutanecarboxamide], 57.4 nM; that for `Cn1cc([C@H]2C[C@@H]2C(=O)Nc2cc3cc(-c4ccccc4Cl)nc(N)c3cn2)cn1` [Compound 305, (1R,2R)—N-[8-amino-6-(2-chlorophenyl)-2,7-naphthyridin-3-yl]-2-(1-methyl-H-pyrazol-4-yl)cyclopropane-1-carboxamide], 0.152 nM.
`Cc1ccncc1-c1cc2cc(NC(=O)[C@H]3C[C@@H]3c3cnn(CCOCCN)c3)ncc2c(N)n1` [Compound 292, (1S,2S)—N-[8-amino-6-(4-methylpyridin-3-yl)-2,7-naphthyridin-3-yl]-2-[1-[2-(2-aminoethoxy)ethyl]-1H-pyrazol-4-yl]cyclopropane-1-carboxamide]: the Ki came out at 0.0417 nM.
In the case of `COCCn1cc([C@@H]2C[C@H]2C(=O)Nc2cc3cc(-c4cnccc4C)nc(N)c3cn2)cn1` [Compound 330, (1R,2R)—N-(8-amino-6-(4-methylpyridin-3-yl)-2,7-naphthyridin-3-yl)-2-(1-(2-methoxyethyl)-1H-pyrazol-4-yl)cyclopropanecarboxamide], the Ki was < 0.02 nM.
On to `Cc1ccncc1-c1cc2cc(NC(=O)C3C4CNCC43)ncc2c(N)n1` (centres unmarked) [Compound 111, N-[8-amino-6-(4-methyl-3-pyridyl)-2,7-naphthyridin-3-yl]-3-azabicyclo[3.1.0]hexane-6-carboxamide], for which the Ki came out at 2.38 nM.
Regarding `Cc1ccncc1-c1cc2cc(NC(=O)[C@H]3[C@@H]4CNC(=O)[C@@H]43)ncc2c(N)n1` [Compound 158, Exo-N-(8-amino-6-(4-methylpyridin-3-yl)-2,7-naphthyridin-3-yl)-2-oxo-3-azabicyclo[3.1.0]hexane-6-carboxamide], the Ki came out at 3.6 nM.
`CCc1ccncc1-c1cc2cc(Nc3cc(C(=O)N(C)CC)ccn3)ncc2c(N)n1` [Compound 81, 2-[8-Amino-6-(4-ethylpyridin-3-yl)-[2,7]naphthyridin-3-ylamino]-N-ethyl-N-methylisonicotinamide]: the Ki was found to be 0.3 nM.
The result for `Cn1cc([C@@H]2C[C@H]2C(=O)Nc2cc3cc(-c4c(F)cccc4Cl)nc(N)c3cn2)cn1` [Compound 302, (1R,2R)—N-(8-amino-6-(2-chloro-6-fluorophenyl)-2,7-naphthyridin-3-yl)-2-(1-methyl-1H-pyrazol-4-yl)cyclopropanecarboxamide] reads 0.65 nM.
